According to paper PMC3119665, “A New Drug Design Targeting the Adenosinergic System for Huntington's Disease” (PLoS ONE, 2011):

Assays:
Adrenergic β 1 = molecular target: T1, Adrenergic β 1 (Homo sapiens, UniProt P08588); assay: Radioligand binding panel (Table S1); conditions: 10 μM T1-11, n 2
T1 construct: purchased MDS Pharma Services Taiwan

[1] = test system: chymotrypsin-like activity of the proteasome; assay: Proteasome activity assay, striatal synaptosomes; type: in vivo; conditions: R6/2 mice, 12 weeks old, 0.05 mg/ml in drinking water
Description: The chymotrypsin-like activity of the proteasome was determined using a specific proteasome substrate [succinyl (suc)-Leu-Leu-Val-Tyr-7-amino-4-methyl coumarin (AMC)] (Sigma-Aldrich, St Louis, MO, USA) as described earlier. In brief, the synaptosome-enriched fraction (10 µg) were incubated with the substrate (40 µM) in 100 µl of proteasome assay buffer [0.05 M Tris-HCl (pH 8.0), 0.5 mM EDTA, 1 mM ATP, and 1 mM DTT] at 37°C for 60 min where the relationship between the incubation time and product formation remained linear. The fluorescence of the released AMC was detected using a Fluorescence Microplate Reader System (Device, Sunnyvale, CA, USA) at 380-nm excitation and 460-nm emission wavelengths.

[2] = molecular target: T2, Vasoactive Intestinal Peptide VIP1 (Homo sapiens, UniProt P32241); assay: Radioligand binding panel (Table S1); conditions: 10 μM T1-11, n 2
T2 construct: purchased MDS Pharma Services Taiwan

Lipoxygenase 5-LO = molecular target: T3, Lipoxygenase 5-LO (Homo sapiens, UniProt P09917); assay: Radioligand binding panel (Table S1); conditions: 10 μM T1-11, n 2
T3 construct: purchased MDS Pharma Services Taiwan

Transporter, Monoamine = assay: Radioligand binding panel (Table S1); design: species or system rabbit; conditions: 10 μM T1-11, n 2
Adrenergic α 1B = molecular target: T4, Adrenergic α 1B (Rattus norvegicus, UniProt P15823); assay: Radioligand binding panel (Table S1); conditions: 10 μM T1-11, n 2
T4 construct: purchased MDS Pharma Services Taiwan

Muscarinic M2 = molecular target: T5, Muscarinic M2 (Homo sapiens, UniProt P08172); assay: Radioligand binding panel (Table S1); conditions: 10 μM T1-11, n 2
T5 construct: purchased MDS Pharma Services Taiwan

Tachykinin NK3 = molecular target: T6, Tachykinin NK3 (Homo sapiens, UniProt P29371); assay: Radioligand binding panel (Table S1); conditions: 10 μM T1-11, n 2
T6 construct: purchased MDS Pharma Services Taiwan

[3] = molecular target: T7, Cholecystokinin CCK. (CCK8) (Homo sapiens, UniProt P32239); assay: Radioligand binding panel (Table S1); conditions: 10 μM T1-11, n 2
T7 construct: purchased MDS Pharma Services Taiwan

Somatostatin sst1 = molecular target: T8, Somatostatin sst1 (Homo sapiens, UniProt P30872); assay: Radioligand binding panel (Table S1); conditions: 10 μM T1-11, n 2
T8 construct: purchased MDS Pharma Services Taiwan

Phorbol Ester = assay: Radioligand binding panel (Table S1); design: species or system mouse; conditions: 10 μM T1-11, n 2
[4] = test system: Thyrotropin Releasing Hormone (TRH); assay: Radioligand binding panel (Table S1); design: species or system rat; conditions: 10 μM T1-11, n 2
[5] = molecular target: T9, Transporter, Serotonin (5-Hydroxytryptamine) (SERT) (Homo sapiens, UniProt P31645); assay: Radioligand binding panel (Table S1); conditions: 10 μM T1-11, n 2
T9 construct: purchased MDS Pharma Services Taiwan

Adrenomedullin AM2 = molecular target: T10, Adrenomedullin AM2 (Homo sapiens, UniProt O60896+Q16602); assay: Radioligand binding panel (Table S1); conditions: 10 μM T1-11, n 2
T10 construct: purchased MDS Pharma Services Taiwan

[6] = T1-11 level in the brain after intraperitoneal injection; type: in vivo, mice; conditions: mouse, ip, 5 mg/kg, 30 min after the intraperitoneal injection, n = 4, mean ± s.e.m., read-out: T1-11 detected in the brain
Phosphodiesterase PDE1 = assay: Radioligand binding panel (Table S1); design: species or system human; conditions: 10 μM T1-11, n 2
Histamine H4 = molecular target: T11, Histamine H4 (Homo sapiens, UniProt Q9H3N8); assay: Radioligand binding panel (Table S1); conditions: 10 μM T1-11, n 2
T11 construct: purchased MDS Pharma Services Taiwan

[7] = molecular target: T12, Nicotinic Acetylcholine α7, Bungarotoxin (Rattus norvegicus, UniProt Q05941); assay: Radioligand binding panel (Table S1)
T12 construct: purchased MDS Pharma Services Taiwan

Muscarinic M1 = molecular target: T13, Muscarinic M1 (Homo sapiens, UniProt P11229); assay: Radioligand binding panel (Table S1); conditions: 10 μM T1-11, n 2
T13 construct: purchased MDS Pharma Services Taiwan

Chemokine CCR2B = molecular target: T14, Chemokine CCR2B (Homo sapiens, UniProt P41597); assay: Radioligand binding panel (Table S1); conditions: 10 μM T1-11, n 2
T14 construct: purchased MDS Pharma Services Taiwan

Muscarinic M4 = molecular target: T15, Muscarinic M4 (Homo sapiens, UniProt P08173); assay: Radioligand binding panel (Table S1); conditions: 10 μM T1-11, n 2
T15 construct: purchased MDS Pharma Services Taiwan

[8] = molecular target: T16, Nicotinic Acetylcholine α1, Bungarotoxin (Homo sapiens, UniProt P02708+P07510+Q07001); assay: Radioligand binding panel (Table S1)
T16 construct: purchased MDS Pharma Services Taiwan

Transporter, GABA = molecular target: T17, Transporter, GABA (Rattus norvegicus, UniProt P23978); assay: Radioligand binding panel (Table S1); conditions: 10 μM T1-11, n 2
T17 construct: purchased MDS Pharma Services Taiwan

Progesterone PR-B = molecular target: T18, Progesterone PR-B (Homo sapiens, UniProt P06401); assay: Radioligand binding panel (Table S1); conditions: 10 μM T1-11, n 2
T18 construct: purchased MDS Pharma Services Taiwan

[9] = molecular target: T19, Serotonin (5-Hydroxytryptamine) 5-HT5A (Homo sapiens, UniProt P47898); assay: Radioligand binding panel (Table S1); conditions: 10 μM T1-11, n 2
T19 construct: purchased MDS Pharma Services Taiwan

Dopamine D1 = molecular target: T20, Dopamine D1 (Homo sapiens, UniProt P21728); assay: Radioligand binding panel (Table S1); conditions: 10 μM T1-11, n 2
T20 construct: purchased MDS Pharma Services Taiwan

[10] = test system: Glutamate, NMDA, Phencyclidine; assay: Radioligand binding panel (Table S1); design: species or system rat; conditions: 10 μM T1-11, n 2
Adrenergic α 1A = molecular target: T21, Adrenergic α 1A (Rattus norvegicus, UniProt P43140); assay: Radioligand binding panel (Table S1); conditions: 10 μM T1-11, n 2
T21 construct: purchased MDS Pharma Services Taiwan

Gabapentin = assay: Radioligand binding panel (Table S1); design: species or system rat; conditions: 10 μM T1-11, n 2
Adrenergic β 3 = molecular target: T22, Adrenergic β 3 (Homo sapiens, UniProt P13945); assay: Radioligand binding panel (Table S1); conditions: 10 μM T1-11, n 2
T22 construct: purchased MDS Pharma Services Taiwan

Phosphodiesterase PDE6 = assay: Radioligand binding panel (Table S1); design: species or system human; conditions: 10 μM T1-11, n 2
Melanocortin MC5 = molecular target: T23, Melanocortin MC5 (Homo sapiens, UniProt P33032); assay: Radioligand binding panel (Table S1); conditions: 10 μM T1-11, n 2
T23 construct: purchased MDS Pharma Services Taiwan

Angiotensin AT2 = molecular target: T24, Angiotensin AT2 (Homo sapiens, UniProt P50052); assay: Radioligand binding panel (Table S1); conditions: 10 μM T1-11, n 2
T24 construct: purchased MDS Pharma Services Taiwan

[11] = test system: GABAA, Chloride Channel, TBOB; assay: Radioligand binding panel (Table S1); design: species or system rat; conditions: 10 μM T1-11, n 2
[12] = test system: Melatonin MT, Non-Selective; assay: Radioligand binding panel (Table S1); design: species or system chicken; conditions: 10 μM T1-11, n 2
[13] = molecular target: T25, Phosphodiesterase PDE10A1 (Homo sapiens, UniProt Q9Y233); assay: Radioligand binding panel (Table S1); conditions: 10 μM T1-11, n 2
T25 construct: purchased MDS Pharma Services Taiwan
T25 sequence (Q9Y233 1-779 isoform Q9Y233-1): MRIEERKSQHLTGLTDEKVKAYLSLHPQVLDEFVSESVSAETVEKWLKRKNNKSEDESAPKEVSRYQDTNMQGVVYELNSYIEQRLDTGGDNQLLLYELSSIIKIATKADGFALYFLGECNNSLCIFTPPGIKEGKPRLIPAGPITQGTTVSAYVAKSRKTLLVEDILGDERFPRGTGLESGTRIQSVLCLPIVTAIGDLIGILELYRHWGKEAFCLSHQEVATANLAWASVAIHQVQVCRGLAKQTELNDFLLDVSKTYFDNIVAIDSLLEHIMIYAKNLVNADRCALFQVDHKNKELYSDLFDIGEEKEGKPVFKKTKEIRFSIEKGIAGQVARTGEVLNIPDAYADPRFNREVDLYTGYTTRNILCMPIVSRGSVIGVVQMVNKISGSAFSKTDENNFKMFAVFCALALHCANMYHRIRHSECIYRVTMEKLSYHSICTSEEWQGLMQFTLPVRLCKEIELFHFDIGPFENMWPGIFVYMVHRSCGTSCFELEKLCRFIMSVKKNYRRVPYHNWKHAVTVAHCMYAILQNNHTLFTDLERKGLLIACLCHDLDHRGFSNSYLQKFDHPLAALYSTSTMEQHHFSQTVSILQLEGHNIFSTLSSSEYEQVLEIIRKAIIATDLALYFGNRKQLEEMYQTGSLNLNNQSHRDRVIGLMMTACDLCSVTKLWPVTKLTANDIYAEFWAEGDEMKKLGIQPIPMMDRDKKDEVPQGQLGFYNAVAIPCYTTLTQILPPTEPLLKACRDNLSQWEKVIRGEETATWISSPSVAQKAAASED

T3 sequence (P09917 whole entry): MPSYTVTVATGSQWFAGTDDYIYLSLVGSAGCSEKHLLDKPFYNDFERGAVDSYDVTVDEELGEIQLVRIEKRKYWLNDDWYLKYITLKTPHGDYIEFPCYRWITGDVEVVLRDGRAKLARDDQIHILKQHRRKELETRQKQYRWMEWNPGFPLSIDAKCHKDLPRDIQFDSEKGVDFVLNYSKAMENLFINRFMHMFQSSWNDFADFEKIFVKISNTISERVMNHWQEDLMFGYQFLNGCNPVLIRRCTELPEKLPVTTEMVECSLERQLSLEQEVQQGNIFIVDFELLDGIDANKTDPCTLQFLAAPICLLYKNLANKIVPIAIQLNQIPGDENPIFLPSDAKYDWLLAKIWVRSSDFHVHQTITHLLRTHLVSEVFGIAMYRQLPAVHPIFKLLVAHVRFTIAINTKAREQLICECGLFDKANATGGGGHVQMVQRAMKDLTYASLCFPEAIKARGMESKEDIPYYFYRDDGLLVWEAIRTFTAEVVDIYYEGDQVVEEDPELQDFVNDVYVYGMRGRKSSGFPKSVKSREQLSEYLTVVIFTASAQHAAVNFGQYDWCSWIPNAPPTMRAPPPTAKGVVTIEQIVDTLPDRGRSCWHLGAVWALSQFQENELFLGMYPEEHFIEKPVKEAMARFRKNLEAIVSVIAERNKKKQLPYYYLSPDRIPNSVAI
T18 sequence (P06401 whole entry): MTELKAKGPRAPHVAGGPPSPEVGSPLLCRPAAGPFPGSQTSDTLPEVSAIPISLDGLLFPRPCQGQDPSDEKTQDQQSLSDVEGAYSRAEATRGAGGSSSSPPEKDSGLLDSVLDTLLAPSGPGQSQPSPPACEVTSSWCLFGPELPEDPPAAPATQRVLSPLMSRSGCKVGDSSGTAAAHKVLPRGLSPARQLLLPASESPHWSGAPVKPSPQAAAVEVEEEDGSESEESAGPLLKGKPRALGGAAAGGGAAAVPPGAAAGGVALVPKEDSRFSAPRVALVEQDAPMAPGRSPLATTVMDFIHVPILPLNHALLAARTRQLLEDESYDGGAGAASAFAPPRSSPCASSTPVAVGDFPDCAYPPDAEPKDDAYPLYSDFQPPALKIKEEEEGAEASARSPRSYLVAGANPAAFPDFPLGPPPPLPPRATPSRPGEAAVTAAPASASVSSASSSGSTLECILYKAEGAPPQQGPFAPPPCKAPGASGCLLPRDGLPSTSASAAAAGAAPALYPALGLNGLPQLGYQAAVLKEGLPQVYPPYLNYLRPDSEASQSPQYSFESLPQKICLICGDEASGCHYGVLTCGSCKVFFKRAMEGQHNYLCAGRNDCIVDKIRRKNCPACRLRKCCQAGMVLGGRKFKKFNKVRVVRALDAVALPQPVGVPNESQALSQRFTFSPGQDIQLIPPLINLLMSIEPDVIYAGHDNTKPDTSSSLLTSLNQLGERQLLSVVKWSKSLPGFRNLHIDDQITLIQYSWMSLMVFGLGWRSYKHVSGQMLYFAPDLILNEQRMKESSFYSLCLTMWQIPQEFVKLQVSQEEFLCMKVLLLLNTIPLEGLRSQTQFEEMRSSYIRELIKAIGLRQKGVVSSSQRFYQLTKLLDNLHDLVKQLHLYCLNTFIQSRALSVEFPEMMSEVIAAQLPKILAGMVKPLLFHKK
T1 sequence (P08588 whole entry): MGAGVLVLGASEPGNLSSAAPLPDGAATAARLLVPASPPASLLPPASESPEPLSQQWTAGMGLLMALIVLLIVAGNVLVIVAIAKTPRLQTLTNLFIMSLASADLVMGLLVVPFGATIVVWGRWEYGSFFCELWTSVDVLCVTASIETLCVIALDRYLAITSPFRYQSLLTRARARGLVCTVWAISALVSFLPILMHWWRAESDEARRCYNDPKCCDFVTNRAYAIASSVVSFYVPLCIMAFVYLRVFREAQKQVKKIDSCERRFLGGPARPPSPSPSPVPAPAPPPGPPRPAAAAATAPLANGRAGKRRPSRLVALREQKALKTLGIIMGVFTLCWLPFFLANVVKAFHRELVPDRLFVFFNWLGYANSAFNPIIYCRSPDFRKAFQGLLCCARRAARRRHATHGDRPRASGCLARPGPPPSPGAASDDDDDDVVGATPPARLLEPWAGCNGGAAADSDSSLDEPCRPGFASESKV
T20 sequence (P21728 whole entry): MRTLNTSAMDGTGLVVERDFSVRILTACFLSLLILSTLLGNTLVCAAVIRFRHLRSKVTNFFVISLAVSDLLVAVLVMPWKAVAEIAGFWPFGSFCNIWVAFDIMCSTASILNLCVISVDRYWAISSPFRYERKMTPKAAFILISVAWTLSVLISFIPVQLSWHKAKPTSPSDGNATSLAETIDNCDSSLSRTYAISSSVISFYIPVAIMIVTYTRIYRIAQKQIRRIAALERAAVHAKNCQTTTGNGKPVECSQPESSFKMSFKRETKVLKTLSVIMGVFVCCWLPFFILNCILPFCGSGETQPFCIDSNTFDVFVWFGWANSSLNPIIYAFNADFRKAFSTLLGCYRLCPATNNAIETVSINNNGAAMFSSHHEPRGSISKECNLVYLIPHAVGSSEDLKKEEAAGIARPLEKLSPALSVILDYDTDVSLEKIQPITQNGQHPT
T15 sequence (P08173 whole entry): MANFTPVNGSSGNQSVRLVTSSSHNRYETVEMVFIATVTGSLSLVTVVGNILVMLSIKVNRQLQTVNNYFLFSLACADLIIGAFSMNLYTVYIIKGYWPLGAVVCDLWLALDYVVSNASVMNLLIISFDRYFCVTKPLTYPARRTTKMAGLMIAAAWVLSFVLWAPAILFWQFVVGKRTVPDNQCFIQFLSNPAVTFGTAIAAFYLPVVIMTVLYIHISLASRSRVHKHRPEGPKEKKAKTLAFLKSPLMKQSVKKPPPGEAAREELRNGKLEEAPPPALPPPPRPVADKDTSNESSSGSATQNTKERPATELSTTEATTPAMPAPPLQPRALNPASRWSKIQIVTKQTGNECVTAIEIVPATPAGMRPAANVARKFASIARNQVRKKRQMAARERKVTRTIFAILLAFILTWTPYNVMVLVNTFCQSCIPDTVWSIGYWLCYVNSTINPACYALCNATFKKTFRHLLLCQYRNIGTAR
T24 sequence (P50052 whole entry): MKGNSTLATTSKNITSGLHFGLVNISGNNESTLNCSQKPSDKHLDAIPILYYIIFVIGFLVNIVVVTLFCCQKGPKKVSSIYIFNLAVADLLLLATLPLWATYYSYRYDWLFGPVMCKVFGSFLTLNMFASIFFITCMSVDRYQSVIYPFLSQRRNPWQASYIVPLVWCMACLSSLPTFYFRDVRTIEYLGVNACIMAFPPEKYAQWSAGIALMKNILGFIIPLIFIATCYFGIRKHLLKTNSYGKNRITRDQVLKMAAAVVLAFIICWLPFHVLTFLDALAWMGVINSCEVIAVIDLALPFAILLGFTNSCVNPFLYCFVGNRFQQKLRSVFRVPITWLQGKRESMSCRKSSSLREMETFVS

OC[C@H]1O[C@@H](n2cnc3c(NCc4ccc(O)cc4)ncnc32)[C@H](O)[C@@H]1O [T1-11, N ^6-(4-hydroxybenzyl)adenine riboside]
inhibition at 10 µM (Adrenergic β 1): 7% | Chymotrypsin-like activity in striatal synaptosome fractions [1]: significantly enhanced chymotrypsin-like activity in the HD striatum | inhibition at 10 µM [2]: 2% | inhibition at 10 µM (Lipoxygenase 5-LO): 25% | % Inhibition (Transporter, Monoamine): -6% | inhibition at 10 µM (Adrenergic α 1B): 3% | inhibition at 10 µM (Muscarinic M2): 4% | inhibition at 10 µM (Tachykinin NK3): -3% | inhibition at 10 µM [3]: -5% | inhibition at 10 µM (Somatostatin sst1): -3% | % Inhibition (Phorbol Ester): 9% | % Inhibition [4]: -4% | inhibition at 10 µM [5]: 5% | inhibition at 10 µM (Adrenomedullin AM2): 9% | concentration at 30 min [6]: 0.12 ± 0.01 ng/g | % Inhibition (Phosphodiesterase PDE1): 17% | inhibition at 10 µM (Histamine H4): 8% | inhibition at 10 µM [7]: -1% | inhibition at 10 µM (Muscarinic M1): -1% | inhibition at 10 µM (Chemokine CCR2B): 0% | inhibition at 10 µM (Muscarinic M4): 9% | inhibition at 10 µM [8]: 3% | inhibition at 10 µM (Transporter, GABA): 8% | inhibition at 10 µM (Progesterone PR-B): -8% | inhibition at 10 µM [9]: -7% | inhibition at 10 µM (Dopamine D1): -13% | % Inhibition [10]: -2% | inhibition at 10 µM (Adrenergic α 1A): -14% | % Inhibition (Gabapentin): 8% | inhibition at 10 µM (Adrenergic β 3): -1% | % Inhibition (Phosphodiesterase PDE6): 21% | inhibition at 10 µM (Melanocortin MC5): 1% | inhibition at 10 µM (Angiotensin AT2): 3% | % Inhibition [11]: -3% | % Inhibition [12]: -3% | inhibition at 10 µM [13]: 1%
